Results taken from patent US20130079345A1, “[…] ACTIVE DISUBSTITUTED TRIAZINE DERIVATIVES” (BAYER INTELLECTUAL PROPERTY GMBH, priority 2010, published 2013).
Where a name gives a salt, the structure may show the parent alone. Values belong to the compound of their own block, whether it stands above or below them.

Columns and labels:
[1] = molecular target: T1, CDK8/Cyclin C (Homo sapiens, UniProt P49336); test: LanthaScreen Eu Kinase Binding Assay, CDK8; details: tracer 236, read-out: Affinity (Kd) CDK8
T1 construct: purchased Invitrogen
T1 sequence (P49336 whole entry): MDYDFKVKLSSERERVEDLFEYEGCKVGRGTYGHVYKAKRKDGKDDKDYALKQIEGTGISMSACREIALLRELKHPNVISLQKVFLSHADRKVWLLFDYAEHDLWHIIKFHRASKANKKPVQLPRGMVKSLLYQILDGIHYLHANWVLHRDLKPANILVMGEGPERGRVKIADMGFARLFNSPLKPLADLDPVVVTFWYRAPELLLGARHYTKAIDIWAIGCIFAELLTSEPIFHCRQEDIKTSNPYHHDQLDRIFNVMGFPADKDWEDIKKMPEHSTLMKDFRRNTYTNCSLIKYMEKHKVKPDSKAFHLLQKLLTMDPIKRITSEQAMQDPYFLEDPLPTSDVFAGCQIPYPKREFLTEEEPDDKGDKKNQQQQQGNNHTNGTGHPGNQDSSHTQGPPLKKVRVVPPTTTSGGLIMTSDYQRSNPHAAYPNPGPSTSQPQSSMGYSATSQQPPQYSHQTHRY
T1 sequence (P24863 whole entry partner): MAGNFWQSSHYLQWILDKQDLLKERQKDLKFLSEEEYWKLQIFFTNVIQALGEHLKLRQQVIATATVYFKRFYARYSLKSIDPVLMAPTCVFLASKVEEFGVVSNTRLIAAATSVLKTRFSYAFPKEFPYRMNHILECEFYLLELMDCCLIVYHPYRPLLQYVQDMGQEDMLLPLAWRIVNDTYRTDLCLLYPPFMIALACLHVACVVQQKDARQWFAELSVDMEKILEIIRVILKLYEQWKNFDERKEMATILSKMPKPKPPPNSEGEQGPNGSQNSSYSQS
Procedure: This protocol describes how the LanthaScreen Eu Kinase Binding Assay was performed to determine dissociation constants (Kd) of compounds of general formula (I) and CDK/Cyclin complexes. The principle behind this assay is based upon the binding and displacement of an Alexa Fluor 647-labeled tracer, which binds to the active site of kinases. Binding of the tracer to the kinase is detected using a Eu-labeled antibody. Simultaneous binding of both the tracer and antibody to the kinase gives rise to a FRET-signal. Binding of an inhibitor to the kinase competes for binding with the tracer, resulting in a loss of FRET.
The compounds of general formula (I) summarized in Table 1 were diluted from a 10 mM DMSO stock solution 1:10 in a total volume of 15 μL DMSO. This compound predilution was then serial diluted 1:3 over 8 steps in DMSO and briefly spun down. Each compound solution was now diluted 1:33.33 in kinase buffer (HEPES: 20 mM, pH: 8.0; MgCl2: 10 mM; DTT: 1 mM; Brij-35: 0.01%), mixed thoroughly and spun down. For every sample, 5 μL of the diluted compound were mixed with 5 μL tracer working solution (e.g. 60 nM tracer 236 in kinase buffer for CDK2/Cyclin A) and 5 μL CDK/Cyclin/Anti-GST-AB-working solution (e.g. 15 nM CDK2/Cyclin A, 1:250 dilution of Anti-GST-AB in kinase buffer) in a well of a small volume 384 well plate (Corning Incorporated, Corning, N.Y., USA; order no. 3673). […] For positive controls, in each well 5 μL of DMSO working solution (3% DMSO diluted in kinase buffer) was mixed with 5 μL CDK/Cyclin/Anti-GST-AB-working solution: (e.g. 15 nM CDK2/Cyclin A, 1:250 dilution of Anti-GST-AB in kinase buffer) and 5 μL Tracer working solution (e.g. 60 nM Tracer 236 in kinase buffer for CDK2/Cyclin A). Positive and negative controls were calculated from at least 8 different sample wells. The 384 well plates were mixed in a Teleshaker plate mixer (Beckman Coulter, Brea, Calif., USA) at 2000 rpm for 40 sec, and incubated for 1 h at room temperature before reading. The FRET signal was measured at 340 nm excitation, 665 nm and 615 nm emission (for the kinase tracer and LanthaScreen Eu-AB, respectively) with an Envision spectrophotometer (Perkin Elmer, Waltham, Mass., USA) with 50 μs delay and 300 μs integration time. Kd values were determined from the sigmoidal dose response curves with the software Quattro Workflow (Quattro GmbH, Munich, Germany).

[2] = system: CACO-2 cells; test: Cell viability, CACO-2 cells; assay type: cell-based, human
Procedure: (§1) HeLa- or MDAMB468-Cells or MATU ADR, H460, DU145, CACO-2 or B16F10 cells were maintained in RPMI 1640 or McCoy's 5A cell culture medium+glutamine (PAN Biotech GmbH, Aidenbach, Germany; order no. P04-22100; P04-05500) supplemented with 10% fetal calf serum “Gold” (PAA Laboratories GmbH, Pasching, Austria; order no. A15-151) and grown at 37° C., 5% CO2. For the cell viability assay, cells were seeded with a density of 400 (Hela cells, DSMZ Braunschweig order no. ACC57) or 800 (MDAMB468 cells, ATCC order no. HTB-132) per well in 25 μL in 384-well plates (Greiner Bio-One, Frickenhausen, Germany; order no. 781080). After overnight incubation at 37° C./5% CO2, 25 nL or 75 nL compound were added to each sample well by using BIOMEK FXP Laboratory Automation Workstation (Beckman Coulter, USA). Wells with cells and 0.1% or 0.3% DMSO in culture medium were used as positive controls, wells with cells and 10 μM staurosporine in culture medium were used as negative controls. The cells were incubated with the compounds for 72 h at 37° C./5% CO2. For measurement of cell viability […] Cell Titer Glo reagent (Promega, Madison, USA; order no. G7573), 1:2 diluted with cell culture medium, was added to each well. The 384well-plates were placed for 2 min on an orbital microplate shaker and incubated for further 10 min at room temperature to stabilize the luminescence signal. Luminescence was measured by Envision Plate Reader (Perkin Elmer, USA). EC50 values were calculated with the software Excel Fit (IDBS, Guildford, UK) from 3-fold dilution series comprising at least 8 concentrations in duplicates.
(§2) Cultivated tumour cells (NCl-H460, human non-small cell lung carcinoma cells, ATCC HTB-177; DU 145, hormone-independent human prostate carcinoma cells, ATCC HTB-81; HeLa-MaTu, human cervical carcinoma cells, EPO-GmbH, Berlin; HeLa-MaTu-ADR, multidrug-resistant human cervical carcinoma cells, EPO-GmbH, Berlin; HeLa human cervical tumour cells, ATCC CCL-2; Caco-2 human colorectal carcinoma, ATCC HTB-37; B16F10 mouse melanoma cells, ATCC CRL-6475) were plated at a density of 5,000 cells/well (DU145, HeLa-MaTu-ADR), 3,000 cells/well (NCl-H460, HeLa-MaTu, HeLa), 1,500 cells/well (Caco-2), or 1,000 cells/well (B16F10) in a 96-well multititer plate in 200 μL of their respective growth medium supplemented with 10% fetal calf serum. After 24 hours, the cells of one plate (zero-point plate) were stained with crystal violet (see below), while the medium of the other plates was replaced by fresh culture medium (200 μl), to which the test substances were added in various concentrations (0 μM as well as in the range of 0.001 to 10 μM; the final concentration of the solvent dimethyl sulfoxide was 0.5%). The cells were incubated in the presence of test substances for 4 days. Cell proliferation was determined by staining the cells with crystal violet: The cells were fixed by adding 20 μl/measuring point of an 11% glutaric aldehyde solution at room temperature for 15 minutes. After three washing cycles of the fixed cells with water, the plates were dried at room temperature. […] The extinction was determined by photometry at a wavelength of 595 nm. The change of cell number, in percent, was calculated by normalization of the measured values to the extinction values of the zero-point plate (equivalent to 0%) and the extinction of the untreated (0 μm) cells (equivalent to 100%). The IC50 values were determined by means of a 4 parameter fit using the company's own software.

[3] = system: MDAMB468 cells; test: Cell viability assay, MDAMB468 cells; assay type: cell-based; details: Homo sapiens, MDA-MB-468, 72 h, Cell Titer Glo
Procedure: as §1

[4] = system: MaTu/ADR cells; test: Cell viability, MaTu/ADR cells; assay type: cell-based; details: Homo sapiens
Procedure: HeLa- or MDAMB468-Cells or MATU ADR, H460, DU145, CACO-2 or B16F10 cells were maintained in RPMI 1640 or McCoy's 5A cell culture medium+glutamine (PAN Biotech GmbH, Aidenbach, Germany; order no. P04-22100; P04-05500) supplemented with 10% fetal calf serum “Gold” (PAA Laboratories GmbH, Pasching, Austria; order no. A15-151) and grown at 37° C., 5% CO2. For the cell viability assay, cells were seeded with a density of 400 (Hela cells, DSMZ Braunschweig order no. ACC57) or 800 (MDAMB468 cells, ATCC order no. HTB-132) per well in 25 μL in 384-well plates (Greiner Bio-One, Frickenhausen, Germany; order no. 781080). After overnight incubation at 37° C./5% CO2, 25 nL or 75 nL compound were added to each sample well by using BIOMEK FXP Laboratory Automation Workstation (Beckman Coulter, USA). Wells with cells and 0.1% or 0.3% DMSO in culture medium were used as positive controls, wells with cells and 10 μM staurosporine in culture medium were used as negative controls. The cells were incubated with the compounds for 72 h at 37° C./5% CO2. For measurement of cell viability […] Cell Titer Glo reagent (Promega, Madison, USA; order no. G7573), 1:2 diluted with cell culture medium, was added to each well. The 384well-plates were placed for 2 min on an orbital microplate shaker and incubated for further 10 min at room temperature to stabilize the luminescence signal. Luminescence was measured by Envision Plate Reader (Perkin Elmer, USA). […]
as §2, with “After 24 hours, the cells of one plate (zero-point plate) were stained with crystal violet (see below), while the medium of the other plates was replaced by fresh culture medium (200 μl), to which the test substances were added in various concentrations (0 μM as well as in the range of 0.001 to 10 μM; the final concentration of the solvent dimethyl sulfoxide was 0.5%). The cells were incubated in the presence of test substances for 4 days.” left out, “minutes.” for “minutes. After three washing cycles of the fixed cells with water, the plates were dried at room temperature.”

[5] = system: HeLa cells; test: Cell viability, HeLa cells; assay type: cell-based; details: Homo sapiens
Procedure: as §1
Cultivated tumour cells (NCl-H460, human non-small cell lung carcinoma cells, ATCC HTB-177; DU 145, hormone-independent human prostate carcinoma cells, ATCC HTB-81; HeLa-MaTu, human cervical carcinoma cells, EPO-GmbH, Berlin; HeLa-MaTu-ADR, multidrug-resistant human cervical carcinoma cells, EPO-GmbH, Berlin; HeLa human cervical tumour cells, ATCC CCL-2; Caco-2 human colorectal carcinoma, ATCC HTB-37; B16F10 mouse melanoma cells, ATCC CRL-6475) were plated at a density of 5,000 cells/well (DU145, HeLa-MaTu-ADR), 3,000 cells/well (NCl-H460, HeLa-MaTu, HeLa), 1,500 cells/well (Caco-2), or 1,000 cells/well (B16F10) in a 96-well multititer plate in 200 μL of their respective growth medium supplemented with 10% fetal calf serum. After 24 hours, the cells of one plate (zero-point plate) were stained with crystal violet (see below), while the medium of the other plates was replaced by fresh culture medium (200 μl), to which the test substances were added in various concentrations (0 μM as well as in the range of 0.001 to 10 μM; the final concentration of the solvent dimethyl sulfoxide was 0.5%). The cells were incubated in the presence of test substances for 4 days. Cell proliferation was determined by staining the cells with crystal violet: The cells were fixed by adding 20 μl/measuring point of an 11% glutaric aldehyde solution at room temperature for 15 minutes. After three washing cycles of the fixed cells with water, the plates were dried at room temperature. The cells were stained by adding 100 μl/measuring point of a 0.1% crystal violet solution (pH 3.0). After three washing cycles of the stained cells with water, the plates were dried at room temperature. The dye was dissolved by adding 100 μl/measuring point of a 10% acetic acid solution. The extinction was determined by photometry at a wavelength of 595 nm. The change of cell number, in percent, was calculated by normalization of the measured values to the extinction values of the zero-point plate (equivalent to 0%) and the extinction of the untreated (0 μm) cells (equivalent to 100%). The IC50 values were determined by means of a 4 parameter fit using the company's own software.

SMILES: NS(=O)(=O)Cc1cccc(Nc2ncnc(-c3ccccc3OCc3ccncc3)n2)c1 [Compound B16, 3-[(4-(2-((4-Pyridinyl)methoxy)phenyl)-1,3,5-triazin-2-yl)amino]benzenemethanesulfonamide]
Kd [1]: > 10 µM

SMILES: COc1cc(F)ccc1-c1ncnc(Nc2cccc(CS(N)(=O)=O)c2)n1 [B2′, 1-(3-{[4-(4-fluoro-2-methoxyphenyl)-1,3,5-triazin-2-yl]amino}phenyl)methanesulfonamide hydrochloride]
IC50 ([2]; hydrochloride): 1.5 µM

SMILES: CCOc1ccccc1-c1ncnc(Nc2cccc(CS(N)(=O)=O)c2)n1 [Compound B12, 3-[(4-(2-Ethoxyphenyl)-1,3,5-triazin-2-yl)amino]benzenemethanesulfonamide]
Kd [1]: > 10 µM

SMILES: COc1cc(F)ccc1-c1ncnc(Nc2cccc(CS(N)(=O)=O)c2)n1 [B2″, 1-(3-{[4-(4-fluoro-2-methoxyphenyl)-1,3,5-triazin-2-yl]amino}phenyl)methanesulfonamide trifluoroacetic acid salt]
Kd [1]: > 10 µM

SMILES: COc1cccc(F)c1-c1ncnc(Nc2cccc(CS(N)(=O)=O)c2)n1 [Compound B4, 3-[(4-(6-Fluoro-2-methoxyphenyl)-1,3,5-triazin-2-yl)amino]benzenemethanesulfonamide]
Kd [1]: > 10 µM

SMILES: COc1ccccc1-c1ncnc(Nc2cccc(S(N)(=O)=O)c2)n1 [C1′, 3-[(4-(2-Methoxyphenyl)-1,3,5-triazin-2-yl)amino]benzenesulfonamide trifluoroacetic acid salt]
IC50 [3]: 0.8 µM
IC50 [4]: 0.76 µM
IC50 ([2]; Homo sapiens, Caco-2): 1.1 µM
IC50 [5]: 1 µM

SMILES: COc1ccccc1-c1cc(Nc2cccc(CS(=O)(=O)N(C)C)c2)ncn1 [Ref4, C-{3-[6-(2-Methoxy-phenyl)-pyrimidin-4-ylamino]-phenyl}-N,N-dimethylmethanesulfonamide, reference compound]
IC50 [5]: 6.1 µM

SMILES: COc1cc(Cl)ccc1-c1ncnc(Nc2cccc(CS(N)(=O)=O)c2)n1 [Compound B6, 3-[(4-(4-Chloro-2-methoxyphenyl)-1,3,5-triazin-2-yl)amino]benzenemethanesulfonamide]
Kd [1]: 6.78 µM

The next lines start with the values.

IC50 [3]: 13.3 µM
SMILES: COc1ccccc1-c1ncnc(Nc2ccccc2)n1 [Compound P1, 4-(2-Methoxyphenyl)-N-phenyl-1,3,5-triazine-2-amine]

IC50 [3]: 0.83 µM
SMILES: COc1ccccc1-c1ncnc(Nc2cccc([N+](=O)[O-])c2)n1 [Compound H1, 4-(2-Methoxyphenyl)-N-(3-nitrophenyl)-1,3,5-triazine-2-amine]

IC50 [3]: 4.61 µM
SMILES: COc1ccccc1-c1ncnc(Nc2cccc(CCS(N)(=O)=O)c2)n1 [Compound D1, 2-[3-((4-(2-Methoxyphenyl)-1,3,5-triazin-2-yl)amino)phenyl]ethanesulfonamide]
